Test results: patent US20190077774A1, “PEROXISOME PROLIFERATOR-ACTIVATED RECEPTOR AGONISTS” (City of Hope, priority 2017, published 2019)

Assays:
Format in all cases: in vivo
[1] = tested on: PPARα target genes in the liver; assay: Liver gene expression of PPARα targets in treated mice (RT-qPCR); details: for Cyp4A3 expression: chronic treatment (FIG. 13); for ACADM expression: time course (FIG. 18)
Source text: FIG. 6. […] Data in same order as triglyceride suppression (FIG. 5). apo CIII and LPL expression inversely correlate with triglyceride suppression for many, but not all, compounds. ACOX1 and Cyp4A3 expression correlate with triglyceride suppression for many, but not all, compounds.
The following oligonucleotide primers were used to amplify insertion sequences: for PPARα, FW-5′-[…]-3′ (SEQ ID NO:1) and Rev-5′-[…]-3′ (SEQ ID NO:2); for RXRα, FW-5′ […]-3′ (SEQ ID NO:3) and Rev-5′-[…]-3′ (SEQ ID NO:4). It has been well established that PPARα agonists fibrates reduce plasma triglycerides largely by inducing hepatic PPARα-mediated transcription of key proteins in hepatic long-chain fatty acid […], such as CPT1 (carnitine palmitoyltransferase-1). DY121 promoted the expression of PPARα, CPT1, and LPL involved in free fatty acid β-oxidation. The mRNA expressions of the PPARα-regulated genes CPT-Ia and ACADM were measured by real-time quantitative-PCR (RT-qPCR). […] A structural specificity of DY121 may be responsible for this regulation. PPARα is predominantly expressed in liver. PPARα modulates fatty acid catabolism in the liver. We next measured the mRNA expression of PPARα target genes in the liver. PPARα agonists exert their actions and attributed to the activation of PPARα which in turn effects an increase in LPL (lipoprotein lipase) gene expression and transrepression of apoC-III (apolipoprotein C-III). Activation of PPARα by its modulators can increase PPARα levels and activate PPARα pathways, leading to increased fatty-acid oxidation and reduction of oxidative stress. DY121 and its analogs induced the expression of PPARα-regulated genes involved in lipid, glucose, and cholesterol metabolism, such as ACOX1 (acyl-CoA oxidase) and Cyp4A3 (cytochrome P450 gene subfamily). Members of the CYP4A gene subfamily catalyze the oxygenation of biologically important fatty acids.
Next, we would like to investigate the therapeutic potential of DY121 to see if it could be candidate for treating NAFLD/NASH. Note that the pathogenesis of NASH has not yet been fully elucidated so far; however, the ‘two-hit’ theory is widely accepted. The first hit is the accumulation of fatty acids in the liver to cause steatosis. […] The newly produced PPARα agonist DY121 and its analogs, as well as WY100=WY14643 and GW3 (GW7647), were evaluated in C57Bl/6J female mice for their ability to alter serum triglyceride, liver gene expression, and glucose. Fibric acid derivatives (100 mg/kg/day) was used as a control, WY100 (WY14, 643, 100 mg/kg/day), GW3 (GW7647-positive control, 3 mg/kg/day), DY121 (˜3 mg/kg/day), respectively. […]

[2] = Body weight and food intake of treated mice; details: time course over 7 days (FIG. 9)
Method: (§1) Next, we would like to investigate the therapeutic potential of DY121 to see if it could be candidate for treating NAFLD/NASH. Note that the pathogenesis of NASH has not yet been fully elucidated so far; however, the ‘two-hit’ theory is widely accepted. The first hit is the accumulation of fatty acids in the liver to cause steatosis. […] The newly produced PPARα agonist DY121 and its analogs, as well as WY100=WY14643 and GW3 (GW7647), were evaluated in C57Bl/6J female mice for their ability to alter serum triglyceride, liver gene expression, and glucose. Fibric acid derivatives (100 mg/kg/day) was used as a control, WY100 (WY14, 643, 100 mg/kg/day), GW3 (GW7647-positive control, 3 mg/kg/day), DY121 (˜3 mg/kg/day), respectively. DY series compounds and controls administered once to C57Bl/6J female mice at 8 weeks of age. Mice were treated at 3 mg/kg for all compounds except WY14643 (100 mg/kg).

[3] = Blood glucose in treated mice; details: after 4 days (FIG. 16)
Source text: FIG. 16. Enhanced PPARα expression and/or activity (particularly in concert with PGC-1α) is expected to increase blood glucose by upregulating gluconeogenic enzymes like PEPCK.
as §1

C57Bl/6J female mice = assay: Serum triglyceride and lipid effects in C57Bl/6J female mice; details: 7 day period (FIG. 10)

Row | SMILES | Cyp4A3 expression ([1]; liver) | apoCIII expression ([1]; liver, chronic treatment up to 7 days (FIG. 11)) | ACADM expression [1] | weight [2] | glucose [3] | triglycerides, chronic treatment (C57Bl/6J female mice) | liver CPT-Ia expression ([1]; chronic (>3 d) treatment (FIG. 17))
1 | Cc1cccc(Nc2cc(Cl)nc(SCC(=O)O)n2)c1C [WY14643, reference compound] | most greatly | suppressed apoCIII only after 7 days treatment | upregulates | caused acute weight loss | increased after 4 days | suppressed triglycerides over the entire 7 day period | –
2 | CC(C)(Sc1ccc(CCN(CCCCC2CCCCC2)C(=O)NC2CCCCC2)cc1)C(=O)O [GW7647, reference compound] | consistently | – | upregulates | – | increased after 4 days | – | upregulated
